Tests used:
HepG2-2.2.15 cells = test: Cell viability (dye uptake assay) in HepG2-2.2.15 cells; conditions: HepG2-2.2.15 cells; test peptide 10 micrograms per ml; dye uptake assay (% cell control)
MRC-5 cells = conditions: human, 6 days
Pseudomonas aeruginosa = type: cell-based; conditions: 5 micrograms per ml
Streptococcus pneumoniae = type: cell-based; conditions: 5 micrograms per ml
MRSA = conditions: 5 micrograms per ml
in vitro [1] = conditions: human
in vitro [2] = conditions: human, MRC-5 cells (embryonal lung fibroblasts)
[3] = Cell viability (dye uptake assay) in HepG2-2.2.15 cells; conditions: human

Nc1ccn([C@@H]2CS[C@H](CO)O2)c(=O)n1 [3TC, Lamivudine, reference compound]
% Cell Viability (HepG2-2.2.15 cells): 95.8%

Nc1nc(O)c2ncn(COC(CO)CO)c2n1 [Ganciclovir]
% Cell Viability (MRC-5 cells): 100%

CC[C@H](C)[C@H](NC(=O)[C@H](Cc1ccc(O)cc1)NC(=O)[C@H](CCCNC(=N)N)NC(=O)[C@H](CCCNC(=N)N)NC(=O)[C@H](CC(C)C)NC(=O)[C@H](CC(=O)O)NC(=O)[C@H](C)NC(=O)[C@H](C)NC(=O)[C@H](Cc1ccc(O)cc1)NC(=O)[C@H](CCC(N)=O)NC(=O)[C@H](C)NC(=O)[C@H](CCSC)NC(=O)[C@H](CCC(N)=O)NC(=O)[C@H](CCC(=O)O)NC(=O)[C@@H]1CCCN1C(=O)[C@@H](NC(=O)[C@H](C)NC(=O)[C@H](CC(N)=O)NC(=O)[C@H](CC(=O)O)NC(=O)CNC(=O)[C@@H]1CCCN1C(=O)[C@H](Cc1ccc(O)cc1)NC(=O)[C@@H](NC(=O)[C@@H]1CCCN1C(=O)[C@H](CCC(=O)O)NC(=O)[C@H](CC(C)C)NC(=O)[C@@H]1CCCN1C(=O)[C@H](C)N)C(C)C)[C@@H](C)O)C(=O)N[C@@H](CC(N)=O)C(=O)N[C@@H](CCSC)C(=O)N[C@@H](CC(C)C)C(=O)N[C@H](C(=O)N[C@@H](CCCNC(=N)N)C(=O)N1CCC[C@H]1C(=O)N[C@@H](CCCNC(=N)N)C(=O)N[C@@H](Cc1ccc(O)cc1)C(N)=O)[C@@H](C)O [Pancreatic polypeptide]
% inhibition (Pseudomonas aeruginosa): 0.0%
% inhibition (Streptococcus pneumoniae): 0.0%
% inhibition (MRSA): 0.0%
viability at 10 micrograms per ml (in vitro [1]): 90.2%
viability at 144 h (in vitro [2]): 100%
viability at 144 h, 10 micrograms per ml [3]: 92.5%

Reference: patent publication US20100184677A1, “USE OF THE HUMAN PANCREATIC POLYPEPTIDE AS A THERAPEUTIC AGENT” (priority 2007, published 2010)
